# According to paper PMC7996082, “The translocator protein ligands as mitochondrial functional modulators for the potential anti-Alzheimer agents” (Journal of Enzyme Inhibition and Medicinal Chemistry, 2021):
# Legend:
# [1] = molecular target: T1, CYP2C19 (Homo sapiens, UniProt P33261); experiment: CYP inhibition assay (Vivid CYP450 screening kit); assay type: in vitro ADME; details: 10 μM compound
# T1 construct: purchased Invitrogen, Madison, WI, USA
# Procedure, shortened: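 Recombinant human CYP isozymes in baculosomes with rabbit NADPH-P450 reductase and a G6P/G6PDH regeneration system (100 mM potassium phosphate, pH 8.0) were preincubated with compound 5 min at 37 °C. Reactions were started with Vivid fluorogenic substrates and 0.1 mM NADP+, and % remaining activity was read by fluorescence after 20 min.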
# [2] = test system: transgenic AD model mice (APPswe/PSEN1dE9); experiment: Y-maze spontaneous alternation test in transgenic AD model mice; assay type: in vivo, mouse; details: Tg APPswe/PSEN1dE9 mice, 30 mg/kg daily, 1 month, PO
# [3] = test system: transgenic AD model mice (APPswe/PSEN1dE9); experiment: Contextual fear conditioning test in transgenic AD model mice; assay type: in vivo, mouse; details: Tg AD model mice, 30 mg/kg daily, 1 month, PO
# Description: The acute AD mice model was prepared by administration of Aβ1-42 solution (10% DMSO/90% PBS) to male ICR mice (6 weeks old, 30 − 33 g) via intracerebroventricular (ICV) injection (Aβ1-42 dose: 500 pmol/mouse) as described previously. The wild type mice (B6C3F1) and double APP/PS1 transgenic mice (Tg AD mice model; APPswe/PSEN1dE9) were purchased from Jackson Laboratory (Bar Harbour, ME, USA). The Tg AD model mice were 11 months old at the beginning of the behaviour test, and were housed for 1 month in a room under controlled temperature and fed ad libitum. The behaviour tests were conducted during daytime in air-controlled and soundproof experiment room. The animal experiments were abided by the guidelines of the Institutional Animal Care and Use Committee of Korea Institute of Science and Technology.
# To the Tg mice of the AD model (n = 7 per group), each test compound (30 mg/kg) was orally administrated daily for 1 month. […] Freezing response was measured by the fear conditioning system without application of CS or US.
# In addition, we assessed recovery effects of compound 7 by performing contextual fear conditioning tests.[40] Healthy mice show higher number of total freezing, which is an index of fear learning and memory of rodents; therefore, the number of total freezing responses under fear-relevant stimuli was measured with the compound-treated Tg AD model mice. […]
# [4] = test system: HT22 cells treated with Aβ; experiment: Cellular ROS assay (DCFDA): inhibition of Aβ-induced ROS generation; assay type: cell-based, mouse; details: Mus musculus, HT-22, 5 μM compound
# Description: Among 56 compounds, 23 compounds were selected and further tested for the luciferase-based ATP assay. […] Thus, we chose these two compounds and further evaluated their biological activity by measuring cell viability and reactive oxygen species (ROS) production. The effects on cell viability of each compound under Aβ-induced cytotoxicity were determined by measuring the metabolic activity of NAD(P)H-dependent cellular oxidoreductases using the 3–(4,5-dimethylthiazol-2-yl)-2,5-diphenyl-tetrazolium bromide (MTT) dye. To measure cellular ROS levels, we used a fluorescence indicator, 2′,7′-dichlorofluorescein diacetate (DCFDA), and calculated the percent inhibition of ROS generation by applying the same method used for MTT assays. Compound 7 inhibited Aβ-induced ROS generation (97% at 5 µM) almost to the level of the untreated control (Table 1). […] On the basis of the in vitro activity, we selected compound 7 as the best hit from the initial screening library.
# T1 sequence (P33261 whole entry): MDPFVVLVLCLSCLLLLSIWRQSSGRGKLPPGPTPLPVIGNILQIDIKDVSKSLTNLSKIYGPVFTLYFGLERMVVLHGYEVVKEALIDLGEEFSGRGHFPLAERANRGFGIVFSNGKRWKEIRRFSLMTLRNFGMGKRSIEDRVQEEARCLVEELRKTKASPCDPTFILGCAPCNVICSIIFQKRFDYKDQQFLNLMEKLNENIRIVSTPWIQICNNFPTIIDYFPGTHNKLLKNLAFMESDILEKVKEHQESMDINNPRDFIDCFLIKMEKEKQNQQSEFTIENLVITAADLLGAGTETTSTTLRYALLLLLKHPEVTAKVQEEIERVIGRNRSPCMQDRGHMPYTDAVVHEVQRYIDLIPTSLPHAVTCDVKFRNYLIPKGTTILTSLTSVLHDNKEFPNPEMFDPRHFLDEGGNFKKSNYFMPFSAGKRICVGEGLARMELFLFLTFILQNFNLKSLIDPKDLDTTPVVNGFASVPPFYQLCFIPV
Structure (SMILES),CYP450 (% remaining Activity at 10 μM) CYP2C19 [1] [%],other results
CCOc1ccc(-n2c(SCC(=O)NCc3ccccc3)nc3sc4c(c3c2=O)CCN(C)C4)cc1 [Compound 49],90.0,–
CCOc1ccc(-n2c(SCC(=O)N(C)Cc3ccccc3)nc3sc4c(c3c2=O)CCN(C)C4)cc1 [Compound 50],47.9,–
CCOc1ccc(-n2c(SCC(=O)NCc3ccccc3)nc3sc4c(c3c2=O)CCN(C(C)=O)C4)cc1 [Compound 31],70.0,–
CCOc1ccc(-n2c(SCC(=O)N3CCN(c4ccccc4)CC3)nc3sc4c(c3c2=O)CCN(C(C)=O)C4)cc1 [Compound 44],28.3,–
CCOc1ccc(-n2c(SCC(=O)Nc3ccc(OC)c(OC)c3)nc3sc4c(c3c2=O)CCN(C(C)=O)C4)cc1 [Compound 7],–,Recovery of Y-maze spontaneous alternations [2]: 50%; Contextual fear conditioning: percent recovery of freezing [3]: 62%; inhibition at 5 µM [4]: 97%
CCOc1ccc(-n2c(SCC(=O)NC3CCN(C)CC3)nc3sc4c(c3c2=O)CCN(C(C)=O)C4)cc1 [Compound 30],107.6,–
